Results from ChEMBL document CHEMBL1201862, “PubChem BioAssay data set” (2004).
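All cell lines were grown in 96-well plates and treated with compound for 48 hours. GI50 marks 50% less growth.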 The source made the active and inactive calls. No stated cut-off is given here; in the data, active = GI50 up to about 1.1 µM and inactive = higher. Peptide text beside a SMILES is read from it. * marks the point of attachment. Boc = CC(C)(C)OC(=O)*; OBn = c1ccc(CO*)cc1; Bn = c1ccc(C*)cc1

Key:
Assay in all cases: growth of human tumour cells (NCI), 48 h
RXF 393 = tested on: RXF 393
786-0 = tested on: 786-0
A498 = tested on: A498
ACHN = tested on: ACHN
BT-549 = tested on: BT-549
CCRF-CEM = tested on: CCRF-CEM
COLO 205 = tested on: COLO 205
HCC 2998 = tested on: HCC 2998
HCT-116 = tested on: HCT-116
HCT-15 = tested on: HCT-15
HL-60 = tested on: HL-60
HOP-92 = tested on: HOP-92
Hs-578T = tested on: Hs-578T
IGROV-1 = tested on: IGROV-1
K562 = tested on: K562
LOX IMVI = tested on: LOX IMVI
MCF7 = tested on: MCF7
MDA-MB-231 = tested on: MDA-MB-231
MDA-N = tested on: MDA-N
MOLT-4 = tested on: MOLT-4
Malme-3M = tested on: Malme-3M
NCI-H226 = tested on: NCI-H226
NCI-H23 = tested on: NCI-H23
NCI-H460 = tested on: NCI-H460
NCI-H522 = tested on: NCI-H522
NCI/ADR-RES = tested on: NCI/ADR-RES
OVCAR-8 = tested on: OVCAR-8
PC-3 = tested on: PC-3
RPMI-8226 = tested on: RPMI-8226
SF-268 = tested on: SF-268
SF-539 = tested on: SF-539
SK-MEL-28 = tested on: SK-MEL-28
SK-MEL-2 = tested on: SK-MEL-2
SK-MEL-5 = tested on: SK-MEL-5
SN12C = tested on: SN12C
SR = tested on: SR
SW-620 = tested on: SW-620
TK-10 = tested on: TK-10
U-251 = tested on: U-251
UACC-257 = tested on: UACC-257
UACC-62 = tested on: UACC-62
A549 = tested on: A549
EKVX = tested on: EKVX
HOP-62 = tested on: HOP-62
HT-29 = tested on: HT-29
KM12 = tested on: KM12
M14 = tested on: M14
OVCAR-5 = tested on: OVCAR-5
SNB-19 = tested on: SNB-19
SNB-75 = tested on: SNB-75
UO-31 = tested on: UO-31

With `CC(=O)OCC1OC(n2c(-c3ccccc3)cc(-c3ccccc3)c(C#N)c2=O)C(OC(C)=O)C(OC(C)=O)C1OC(C)=O` (stereo unspecified) the GI50 (RXF 393) was 56 µM (inactive).

With `Nc1c2c(nc3ccccc13)-c1ccccc1CC2` the GI50 (786-0) was 3.52 µM (inactive), the GI50 (A498) was 3.16 µM (inactive) and the GI50 (ACHN) was 3.56 µM (inactive). The GI50 (BT-549) was 13.2 µM (inactive), the GI50 (CCRF-CEM) was 3.4 µM (inactive) and the GI50 (COLO 205) was 3.76 µM (inactive). The GI50 (HCC 2998) was 1.43 µM (inactive), the GI50 (HCT-116) was 3.76 µM (inactive) and the GI50 (HCT-15) was 3.96 µM. The GI50 (HL-60) was 0.942 µM (active), the GI50 (HOP-92) was 8.09 µM (inactive) and the GI50 (Hs-578T) was 16.4 µM (inactive). For the same molecule, the GI50 (IGROV-1) was 3.82 µM (inactive), the GI50 (K562) was 3.56 µM (inactive) and the GI50 (LOX IMVI) was 4.34 µM (inactive). The GI50 (MCF7) was 1.85 µM (inactive), the GI50 (MDA-MB-231) was 3.88 µM (inactive) and the GI50 (MDA-N) was 4.19 µM (inactive). The GI50 (MOLT-4) was 2.38 µM (inactive), the GI50 (Malme-3M) was 8.49 µM (inactive) and the GI50 (NCI-H226) was 12.1 µM (inactive). For the same molecule, the GI50 (NCI-H23) was 10.6 µM (inactive), the GI50 (NCI-H460) was 2.12 µM (inactive) and the GI50 (NCI-H522) was 8.67 µM (inactive). The GI50 (NCI/ADR-RES) was 5.32 µM (inactive), the GI50 (OVCAR-8) was 4.37 µM (inactive) and the GI50 (PC-3) was 3.59 µM (inactive). The GI50 (RPMI-8226) was 4.09 µM (inactive), the GI50 (SF-268) was 7.82 µM (inactive) and the GI50 (SF-539) was 3.24 µM (inactive). For the same molecule, the GI50 (SK-MEL-28) was 10.4 µM (inactive), the GI50 (SK-MEL-2) was 11 µM (inactive) and the GI50 (SK-MEL-5) was 4.04 µM (inactive). The GI50 (SN12C) was 4.06 µM (inactive), the GI50 (SR) was 2.33 µM (inactive) and the GI50 (SW-620) was 3.15 µM (inactive). For the same molecule, the GI50 (TK-10) was 3.96 µM (inactive), the GI50 (U-251) was 4.17 µM (inactive) and the GI50 (UACC-257) was 2.82 µM (inactive). For the same molecule, the GI50 (UACC-62) was 9.68 µM (inactive).

With `CC(C)CC(NC(=O)C(CCC(=O)OCc1ccccc1)NC(=O)OC(C)(C)C)C(=O)NC(COCc1ccccc1)C(=O)NC(Cc1ccccc1)C(=O)O` (stereo unspecified) (Boc-E(OBn)LS(Bn)F-OH; configuration not given here) the GI50 (786-0) was > 100 µM (inactive), the GI50 (A498) was > 100 µM (inactive) and the GI50 (A549) was > 100 µM (inactive). The GI50 (ACHN) was > 100 µM (inactive), the GI50 (BT-549) was > 100 µM (inactive) and the GI50 (COLO 205) was > 100 µM (inactive). For the same molecule, the GI50 (EKVX) was > 100 µM (inactive), the GI50 (HCC 2998) was > 100 µM (inactive) and the GI50 (HCT-116) was > 100 µM (inactive). The GI50 (HCT-15) was greater than 100 µM, the GI50 (HL-60) was > 100 µM (inactive) and the GI50 (HOP-62) was > 100 µM (inactive). For the same molecule, the GI50 (HOP-92) was > 100 µM (inactive), the GI50 (HT-29) was > 100 µM (inactive) and the GI50 (Hs-578T) was > 100 µM (inactive). The GI50 (IGROV-1) was > 100 µM (inactive), the GI50 (K562) was > 100 µM (inactive) and the GI50 (KM12) was > 100 µM (inactive). For the same molecule, the GI50 (M14) was > 100 µM (inactive), the GI50 (MCF7) was > 100 µM (inactive) and the GI50 (MDA-MB-231) was > 100 µM (inactive). For the same molecule, the GI50 (MDA-N) was > 100 µM (inactive), the GI50 (MOLT-4) was > 100 µM (inactive) and the GI50 (Malme-3M) was 46.9 µM (inactive). For the same molecule, the GI50 (NCI-H226) was > 100 µM (inactive), the GI50 (NCI-H23) was > 100 µM (inactive) and the GI50 (NCI-H460) was > 100 µM (inactive). The GI50 (OVCAR-5) was > 100 µM (inactive), the GI50 (OVCAR-8) was > 100 µM (inactive) and the GI50 (PC-3) was > 100 µM (inactive). The GI50 (RPMI-8226) was > 100 µM (inactive), the GI50 (RXF 393) was > 100 µM (inactive) and the GI50 (SK-MEL-28) was > 100 µM (inactive). For the same molecule, the GI50 (SK-MEL-2) was > 100 µM (inactive), the GI50 (SK-MEL-5) was > 100 µM (inactive) and the GI50 (SN12C) was > 100 µM (inactive). For the same molecule, the GI50 (SNB-19) was > 100 µM (inactive), the GI50 (SNB-75) was 96.8 µM (inactive) and the GI50 (SR) was > 100 µM (inactive). The GI50 (SW-620) was > 100 µM (inactive), the GI50 (TK-10) was > 100 µM (inactive) and the GI50 (U-251) was > 100 µM (inactive). For the same molecule, the GI50 (UACC-257) was > 100 µM (inactive), the GI50 (UACC-62) was > 100 µM (inactive) and the GI50 (UO-31) was > 100 µM (inactive).
